Source: patent US10051861B2, “N-arylamidine-substituted trifluoroethyl sulfide derivatives as acaricides and insecticides” (BAYER CROPSCIENCE AG, priority 2011, dated 2018)
Read-outs that look alike come from different tables or passages of the source. Marks after values point to notes of the source that are not given here.

What was measured:
[1] = logP by HPLC on reversed-phase columns (C 18), EEC Directive 79/831 Annex V.A8; format: physicochemical; details: for logP(HCOOH): pH 2.7
Experimental: Calibration is carried out using unbranched alkan-2-ones (having from 3 to 16 carbon atoms) with known log P values (the log P values are determined by the retention times using linear interpolation between two successive alkanones).

[2] = system: greenhouse red spider mite (Tetranychus urticae); assay: Tetranychus urticae spray test, OP-resistant (TETRUR), bean leaf disks; format: in vivo; details: for pest or weed control at 500 g/ha: Tetranychus urticae, foliar, 144 h, read-out: efficacy (spider mites killed)
Experimental: After 6 days, the effect in % is determined.

[3] = system: larvae of the mustard beetle (Phaedon cochleariae); assay: Phaedon cochleariae spray test (PHAECO); details: Phaedon cochleariae, 168 h, read-out: effect (beetle larvae killed)
[4] = reversed-phase C18 HPLC column, pH 2.7, [a] LC-MS, acidic range, pH 2.7, 0.1% aqueous formic acid/acetonitrile, read-out: logP(HCOOH)
[5] = reversed-phase C18 HPLC column, pH 7.8, [b] LC-MS, neutral range, pH 7.8, 0.001 molar aqueous ammonium bicarbonate/acetonitrile, read-out: logP(neutral)
[6] = application rate 500 g/ha, after 6 days
[7] = [a] LC-MS, acidic range, pH 2.7, 0.1% aqueous formic acid/acetonitrile, read-out: logP(HCOOH)
[8] = [b] LC-MS, neutral range, pH 7.8, 0.001 molar aqueous ammonium bicarbonate/acetonitrile, read-out: logP(neutral)

Structure (SMILES)	chromatographic logP [1, 4]	chromatographic logP [1, 5]	pest or weed control at 500 g/ha [2, 6]	also measured
O=C(Nc1cc(SSc2cc(NC(=O)C(F)(F)F)c(Cl)cc2Br)c(Br)cc1Cl)C(F)(F)F [IV-3, N,N′-[Disulfanediylbis(4-bromo-6-chlorobenzene-3,1-diyl)]bis(2,2,2-trifluoroacetamide)]	5.42	–	–	–
O=C(Nc1cc(SSc2cc(NC(=O)C(F)(F)F)c(Br)cc2Br)c(Br)cc1Br)C(F)(F)F [IV-4, N,N′-[Disulfanediylbis(4,6-dibromobenzene-3,1-diyl)]bis(2,2,2-trifluoroacetamide)]	5.62	4.49	–	–
O=C(Nc1cc(SSc2cc(NC(=O)C(F)(F)F)c(Cl)cc2F)c(F)cc1Cl)C(F)(F)F [IV-5, N,N′-[Disulfanediylbis(6-chloro-4-fluorobenzene-3,1-diyl)]bis(2,2,2-trifluoroacetamide)]	4.45	3.81	–	–
O=C(Nc1cc(SSc2cc(NC(=O)C(F)(F)F)c(F)cc2Br)c(Br)cc1F)C(F)(F)F [IV-7, N,N′-[Disulfanediylbis(4-bromo-6-fluorobenzene-3,1-diyl)]bis(2,2,2-trifluoroacetamide)]	4.76	4.02	–	–
Cc1cc(F)c(N=C(NS(C)(=O)=O)C(F)(F)F)cc1SCC(F)(F)F [Ia-11]	–	–	–	logP(HCOOH) [1]: 3.05^[a]; efficacy (spider mites killed) [2, 6]: 100%
Cc1cc(F)c(SCC(F)(F)F)cc1N=C(N(C)C)C(F)(F)F [Ia-24]	–	–	–	logP(HCOOH) [1]: 4.53; logP(neutral) ([1]; pH 7.8): 4.47
N/C(=N/c1cc(SCC(F)(F)F)c(Br)cc1Br)C(F)(F)F [Ia-28]	–	–	100%	pest or weed control at 500 g/ha [3]: 100%
Cc1cc(F)c(/N=C(\N)C2(Cl)CC2F)cc1SCC(F)(F)F (centres unmarked) [Ia-29]	–	–	100%	pest or weed control at 500 g/ha [3]: 100%
Cc1cc(F)c(/N=C(\N)C2CC2F)cc1SCC(F)(F)F (centres unmarked) [Ia-33]	–	–	100%	pest or weed control at 500 g/ha [3]: 83%
CN(C)/C(=N/c1cc(SCC(F)(F)F)c(Cl)cc1F)C(F)(F)F [Ia-35]	–	–	100%	pest or weed control at 500 g/ha [3]: 100%
Cc1cc(Cl)c(/N=C(\N)C2(Cl)CC2)cc1SCC(F)(F)F [Ia-36]	–	–	100%	pest or weed control at 500 g/ha [3]: 100%
Cc1cc(Cl)c(/N=C(\N)C(F)(F)C(F)(F)F)cc1SCC(F)(F)F [Ia-38]	–	–	100%	pest or weed control at 500 g/ha [3]: 100%
Cc1cc(F)c(/N=C(/NCC2CC2)C(F)(F)F)cc1SCC(F)(F)F [Ia-41]	4.62	–	100%	–
Cc1cc(F)c(/N=C2\CCCN2c2ccccc2)cc1SCC(F)(F)F [Ia-78, 2-Fluoro-4-methyl-N-[(2E)-1-phenylpyrrolidin-2-ylidene]-5-[(2,2,2-trifluoroethyl)sulfanyl]aniline]	–	–	100%	pest or weed control at 500 g/ha [3]: 100%
Cc1cc(F)c(/N=C(\N)[C@H]2CC2(C)C)cc1SCC(F)(F)F [Ia-79]	–	–	100%	pest or weed control at 500 g/ha [3]: 100%
Cc1cc(F)c(/N=C(/NCc2ccc(C(F)(F)F)cc2)C(F)(F)F)cc1SCC(F)(F)F [Ia-89]	5.15	5.15	100%	–
Cc1cc(F)c(/N=C(/Nc2ccccc2)C(F)(F)F)cc1SCC(F)(F)F [Ia-96]	4.37	4.37	100%	–
Cc1cc(F)c(/N=C(\N)c2cnccn2)cc1SCC(F)(F)F [Ia-117, N′-{2-Fluoro-4-methyl-5-[(2,2,2-trifluoroethyl)sulfanyl]phenyl}pyrazine-2-carboximidamide]	1.24	–	90%	–
COc1ccc(N/C(=N/c2cc(SCC(F)(F)F)c(C)cc2F)C(F)(F)F)cc1 [Ia-129]	4.2	4.2	100%	–
Cc1cc(F)c(N=C(N)c2ccccc2F)cc1SCC(F)(F)F [Ia-143]	1.37	3.25	–	–
Cc1cc(F)c(/N=C(\NCC(F)(F)F)C2CC2)cc1SCC(F)(F)F [Ia-145, N′-{2-fluoro-4-methyl-5-[(2,2,2-trifluoroethyl)sulfanyl]phenyl}-N-(2,2,2-trifluoroethyl)cyclopropanecarboximidamide]	1.99	4.12	100%	–

Structure (SMILES)	chromatographic logP [1, 4]	chromatographic logP [1, 5]	pest or weed control at 500 g/ha [2, 6]	also measured
CN/C(=N/c1cc(SCC(F)(F)F)c(C)cc1F)c1ccc(OC)cc1 [Ia-165]	1.68	3.49	100%	–
Cc1cc(F)c(/N=C(\c2ccco2)N(C)C)cc1SCC(F)(F)F [Ia-166, N′-{2-Fluoro-4-methyl-5-[(2,2,2-trifluoroethyl)sulfanyl]phenyl}-N,N-dimethylfuran-2-carboximidamide]	1.57	3.94	100%	–
Cc1cc(F)c(/N=C2\SCC(=O)N2CC(F)(F)F)cc1SCC(F)(F)F [Ia-175, 2-({2-Fluoro-4-methyl-5-[(2,2,2-trifluoroethyl)sulfanyl]phenyl}imino)-3-(2,2,2-trifluoroethyl)-1,3-thiazolidin-4-one]	4.09	3.99	90%	–
CN/C(=N/c1cc(SCC(F)(F)F)c(C)cc1F)c1ccc(C(F)(F)F)cc1 [Ia-250, N′-{2-Fluoro-4-methyl-5-[(2,2,2-trifluoroethyl)sulfanyl]phenyl}-N-methyl-4-(trifluoromethyl)benzenecarboximidamide]	1.96	4.08	90%	–
Cc1cc(F)c(/N=C(\NCC2CCC(C(F)(F)F)CC2)C2CC2)cc1SCC(F)(F)F (centres unmarked) [Ia-251]	2.23	–	90%	–
Cc1cc(F)c(/N=C2/NCCCS2)cc1SCC(F)(F)F [Ia-278, 2-fluoro-4-methyl-N-[1,3-thiazinan-2-ylidene]-5-[(2,2,2-trifluoroethyl)sulfanyl]anilinium chloride]	–	–	–	chromatographic logP [1, 7]: 1.34; pest or weed control at 500 g/ha [2]: 90%
CN/C(=N/c1cc([S+]([O-])CC(F)(F)F)c(Cl)cc1Cl)C(F)(F)F (centres unmarked) [Ib-21]	3.32	3.32	100%	–
Cc1cc(F)c(/N=C(/Nc2ccccc2)C(F)(F)F)cc1[S+]([O-])CC(F)(F)F (centres unmarked) [Ib-49]	3.22	3.12	100%	–
Cc1cc(F)c(/N=C2\CCCN2c2ccccc2)cc1[S+]([O-])CC(F)(F)F (centres unmarked) [Ib-55, 2-Fluoro-4-methyl-N-[(2E)-1-phenylpyrrolidin-2-ylidene]-5-[(2,2,2-trifluoroethyl)sulfinyl]aniline]	1.27	3.47	–	–
Cc1cc(F)c(/N=C(\N)c2cnccn2)cc1[S+]([O-])CC(F)(F)F (centres unmarked) [Ib-62, N′-{2-Fluoro-4-methyl-5-[(2,2,2-trifluoroethyl)sulfinyl]phenyl}pyrazine-2-carboximidamide]	0.84	1.77	100%	–
Cc1cc(F)c(/N=C2\SCC(=O)N2CC(F)(F)F)cc1[S+]([O-])CC(F)(F)F (centres unmarked) [Ib-71, 2-({2-Fluoro-4-methyl-5-[(2,2,2-trifluoroethyl)sulfinyl]phenyl}imino)-3-(2,2,2-trifluoroethyl)-1,3-thiazolidin-4-one]	2.93	2.87	100%	–
COc1ccc(N/C(=N/c2cc([S+]([O-])CC(F)(F)F)c(C)cc2F)C(F)(F)F)cc1 (centres unmarked) [Ib-86]	3.04	3.05	100%	–
COc1ccccc1/C(=N\c1cc([S+]([O-])CC(F)(F)F)c(C)cc1F)N(C)C (centres unmarked) [Ib-161]	1.28	2.95	–	–
COc1cc(C)c(SSc2cc(NC(C)=O)c(OC)cc2C)cc1NC(C)=O [N,N′-[Disulfanediylbis(6-methoxy-4-methylbenzene-3,1-diyl)]diacetamide]	2.73	–	–	–
Cc1cc(F)c(NC(=O)c2ccc(C(F)(F)F)cc2)cc1SCC(F)(F)F [N-{2-Fluoro-4-methyl-5-[(2,2,2-trifluoroethyl)sulfanyl]phenyl}-4-(trifluoromethyl)benzamide]	4.2	4.17	–	–
FC(F)(F)CSc1cc(N=C(Cl)C(F)(F)F)ccc1Cl [N-{4-Chloro-3-[(2,2,2-trifluoroethyl)sulfanyl]phenyl}-2,2,2-trifluoroethanimidoyl chloride]	4.77	4.73	–	–
Cc1cc(F)ccc1NC(=O)C(F)(F)F [VI-2, 2,2,2-Trifluoro-N-(4-fluoro-2-methylphenyl)acetamide]	2.2	2.19	–	–
O=C(Nc1ccc(Br)cc1Cl)C(F)(F)F [VI-3, N-(4-Bromo-2-chlorophenyl)-2,2,2-trifluoroacetamide]	–	–	–	chromatographic logP [1, 7]: 3.01; chromatographic logP [1, 8]: 2.81
O=C(Nc1ccc(Br)cc1Br)C(F)(F)F [VI-4, N-(2,4-Dibromophenyl)-2,2,2-trifluoroacetamide]	–	–	–	chromatographic logP [1, 7]: 3.1; chromatographic logP [1, 8]: 2.89
O=C(Nc1ccc(F)cc1Cl)C(F)(F)F [VI-5, N-(2-Chloro-4-fluorophenyl)-2,2,2-trifluoroacetamide]	–	–	–	chromatographic logP [1, 7]: 2.46; chromatographic logP [1, 8]: 2.31
O=C(Nc1ccc(Br)cc1F)C(F)(F)F [VI-7, N-(4-Bromo-2-fluorophenyl)-2,2,2-trifluoroacetamide]	–	–	–	chromatographic logP [1, 7]: 2.73; chromatographic logP [1, 8]: 2.51
